The values below come from US20250145628A1, “PYRAZOLOPYRIMIDINES, COMPOSITIONS COMPRISING THEM AND USES THEREOF” (Novo Nordisk A/S, priority 2022, published 2025).

Assay [1] deals with T1, human CB1 receptor (Homo sapiens, UniProt P21554).
T1 construct: expressed in transfected cells; host or cells: HEK293
Description: bioSensAll β-arrestin plasma membrane translocation BRET biosensor (+GRK2) assay (antagonism of CP-55,940). The assay is classed as cell-based. Conditions: HEK293 cells transfected with hCB1 and β-arrestin PM translocation biosensor (+GRK2), EC75 of CP-55,940 (100 nM), overnight incubation, read-out: CB1 wt βarr2 IC50. Put shortly: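 HEK293 cells co-transfected with hCB1 and β-arrestin plasma-membrane translocation BRET biosensor plus GRK2, tested ~48 h later in HBSS. Compounds (12 doses, 0–600 nM) added 3–5 min before CP-55,940 at EC75 of 100 nM. uBRET ratio (515/400 nm) fitted by four-parameter logistic regression.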
(Bioluminescence resonance energy transfer reports proximity on the nanometre scale.)

Assay [2] concerns the target T1, human CB1 receptor. In words: bioSensAll GAPL-Gi2 BRET biosensor assay (antagonism of CP-55,940). The assay is classed as cell-based. Conditions: HEK293 cells transfected with hCB1 and GAPL-Gi2 biosensor, EC75 of CP-55,940 (0.1 nM), overnight incubation, read-out: CB1 wt Gi2 IC50. The procedure, abridged: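 HEK293 cells transiently co-transfected with hCB1 and GAPL-Gi2 BRET biosensor; ~48 h later, in HBSS, 12 compound doses ([…]) added 3–5 min before CP-55,940 at EC75 (0.1 nM). BRET ratio 515/400 nm with coelenterazine, standardized to uBRET; four-parameter logistic fit.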

T1 sequence (P21554 whole entry): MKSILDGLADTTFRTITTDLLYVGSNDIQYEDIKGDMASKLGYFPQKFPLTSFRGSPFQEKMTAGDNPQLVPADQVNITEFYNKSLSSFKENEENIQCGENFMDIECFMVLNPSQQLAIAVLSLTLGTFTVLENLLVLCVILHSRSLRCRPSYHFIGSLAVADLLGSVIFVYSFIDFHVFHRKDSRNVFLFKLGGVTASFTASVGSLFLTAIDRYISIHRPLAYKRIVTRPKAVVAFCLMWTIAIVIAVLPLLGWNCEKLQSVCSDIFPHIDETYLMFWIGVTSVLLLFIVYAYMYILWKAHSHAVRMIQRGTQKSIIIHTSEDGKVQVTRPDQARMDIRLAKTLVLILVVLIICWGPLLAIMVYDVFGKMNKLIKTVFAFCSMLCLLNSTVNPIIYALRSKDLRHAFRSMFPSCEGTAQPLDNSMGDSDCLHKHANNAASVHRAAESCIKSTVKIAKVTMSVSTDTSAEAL

Usually IC50 stands for the point on the concentration scale where inhibition reaches its midpoint. As for `CC(C)OC1(C(N)=O)CCN(c2cc(N3CCC[C@H]3CO)nc3c(-c4ccc(Cl)cc4)c(-c4ccccc4Cl)nn23)CC1` [Compound 58, 1-[2-(2-chlorophenyl)-3-(4-chlorophenyl)-5-[(2S)-2-(hydroxymethyl)pyrrolidin-1-yl]pyrazolo[1,5-a]pyrimidin-7-yl]-4-isopropoxy-piperidine-4-carboxamide], the values for the IC50 at human CB1 receptor [1] and at human CB1 receptor [2] were 2.2 nM and 0.99 nM, respectively.
As to `CNC(=O)[C@H]1CCN1c1cc(N2CCC(C)(C(N)=O)CC2)n2nc(-c3ccccc3Cl)c(-c3ccc(Cl)cc3)c2n1` [Compound 65, 1-[2-(2-chlorophenyl)-3-(4-chlorophenyl)-5-[(2R)-2-(methylcarbamoyl)azetidin-1-yl]pyrazolo[1,5-a]pyrimidin-7-yl]-4-methyl-piperidine-4-carboxamide], the IC50 at human CB1 receptor [1] was 20.6 nM; at human CB1 receptor [2] it was 13.3 nM.
The like results for `CNC(=O)CCN(C)c1cc(N2CCC[C@@H](C(N)=O)C2)n2nc(-c3ccccc3Cl)c(-c3ccc(Cl)cc3)c2n1` [Compound 41, (3R)-1-[2-(2-chlorophenyl)-3-(4-chlorophenyl)-5-[methyl-[3-(methylamino)-3-oxo-propyl]amino]pyrazolo[1,5-a]pyrimidin-7-yl]piperidine-3-carboxamide] were, in that order, 161 nM and 93 nM.
As for `CC1(C(N)=O)CCN(c2cc(N3CCC[C@H]3CO)nc3c(-c4ccc(Cl)cc4)c(-c4ccccc4Cl)nn23)CC1` [Compound 9, 1-[2-(2-chlorophenyl)-3-(4-chlorophenyl)-5-[(2S)-2-(hydroxymethyl)pyrrolidin-1-yl]pyrazolo[1,5-a]pyrimidin-7-yl]-4-methyl-piperidine-4-carboxamide], the IC50 came out at 1.84 nM on human CB1 receptor [1] and 0.351 nM on human CB1 receptor [2].
For `CC(C)(O)COc1cc(N2CC(C(N)=O)C2)n2nc(-c3ccc(C#N)nc3)c(-c3ccc(Cl)cc3)c2n1` [Compound 59, 1-[3-(4-chlorophenyl)-2-(6-cyano-3-pyridyl)-5-(2-hydroxy-2-methyl-propoxy)pyrazolo [1,5-a]pyrimidin-7-yl]azetidine-3-carboxamide], the IC50 at human CB1 receptor [1] is 21.8 nM; on human CB1 receptor [2] it was 6.21 nM.
The like results for `C[C@@H](C(N)=O)N(C)c1cc(N2CCC(C)(C(N)=O)CC2)n2nc(-c3ccccc3Cl)c(-c3ccc(Cl)cc3)c2n1` [Compound 68, 1-[5-[[(1S)-2-amino-1-methyl-2-oxo-ethyl]-methyl-amino]-2-(2-chlorophenyl)-3-(4-chlorophenyl)pyrazolo[1,5-a]pyrimidin-7-yl]-4-methyl-piperidine-4-carboxamide] were, in that order, 14.5 nM and 3.01 nM.
In the case of `CN(CP(C)(C)=O)c1cc(N2CCC(C)(C(N)=O)CC2)n2nc(-c3ccccc3Cl)c(-c3ccc(Cl)cc3)c2n1` [Compound 40, 1-[2-(2-chlorophenyl)-3-(4-chlorophenyl)-5-[dimethylphosphorylmethyl (methyl)amino]pyrazolo[1,5-a]pyrimidin-7-yl]-4-methyl-piperidine-4-carboxamide], the IC50 turned out to be 112 nM at human CB1 receptor [1] and 17.3 nM at human CB1 receptor [2].
Turning to `CC(C)(O)COc1cc(N2CCC(C)(C(N)=O)CC2)n2nc(-c3ccc(C#N)nc3)c(-c3ccc(Cl)cc3)c2n1` [Compound 54, 1-[3-(4-chlorophenyl)-2-(6-cyano-3-pyridyl)-5-(2-hydroxy-2-methyl-propoxy)pyrazolo[1,5-a]pyrimidin-7-yl]-4-methyl-piperidine-4-carboxamide], the IC50 on human CB1 receptor [1] was 2.43 nM; on human CB1 receptor [2], 1.02 nM.
`Cc1ccc(-c2cc(N3CCC[C@H]3CO)nc3c(-c4ccc(Cl)cc4)c(-c4ccccc4Cl)nn23)cn1` [Compound 56, [(2S)-1-[2-(2-chlorophenyl)-3-(4-chlorophenyl)-7-(6-methyl-3-pyridyl)pyrazolo[1,5-a]pyrimidin-5-yl]pyrrolidin-2-yl]methanol]: the figures for the half-maximal inhibitory concentration (IC50) at human CB1 receptor [1] and at human CB1 receptor [2] were 5.8 nM and 2.69 nM, respectively.
The like results for `CCNC(=O)CN(C)c1cc(N2CCC(C)(C(N)=O)CC2)n2nc(-c3ccccc3Cl)c(-c3ccc(Cl)cc3)c2n1` [Compound 26, 1-[2-(2-chlorophenyl)-3-(4-chlorophenyl)-5-[[2-(ethylamino)-2-oxo-ethyl]-methyl-amino]pyrazolo[1,5-a]pyrimidin-7-yl]-4-methyl-piperidine-4-carboxamide] were, in that order, 30.5 nM and 5.03 nM.
For `C[C@H](O)COc1cc(-c2ccc(C(F)(F)F)nc2)n2nc(-c3ccccc3Cl)c(-c3ccc(Cl)cc3)c2n1` [Compound 70(S)], in that order: 8.27 nM and 1.71 nM.
Take `OC[C@@H]1CCCN1c1cc(-c2ccc(C(F)(F)F)cc2)n2nc(-c3ccccc3Cl)c(-c3ccc(Cl)cc3)c2n1` [Compound 4, [(2S)-1-[2-(2-chlorophenyl)-3-(4-chlorophenyl)-7-[4-(trifluoromethyl)phenyl]pyrazolo[1,5-a]pyrimidin-5-yl]pyrrolidin-2-yl]methanol]: the IC50 on human CB1 receptor [1] worked out at 10.6 nM; at human CB1 receptor [2], 4.04 nM.
For `CN(CCC(N)=O)c1cc(N2CC[C@H](CC(N)=O)C2)n2nc(-c3ccccc3Cl)c(-c3ccc(Cl)cc3)c2n1` [Compound 28, 3-[[7-[(3R)-3-(2-amino-2-oxo-ethyl)pyrrolidin-1-yl]-2-(2-chlorophenyl)-3-(4-chlorophenyl)pyrazolo[1,5-a]pyrimidin-5-yl]-methyl-amino]propanamide], in that order: 93.9 nM and 18.9 nM.
For `CC(C)(O)COc1cc(N2CCC[C@H](C(N)=O)C2)n2nc(-c3ccccc3Cl)c(-c3ccc(Cl)cc3)c2n1` [Compound 17(S), (3S)-1-[2-(2-chlorophenyl)-3-(4-chlorophenyl)-5-(2-hydroxy-2-methyl-propoxy)pyrazolo[1,5-a]pyrimidin-7-yl]piperidine-3-carboxamide], in that order: 40.4 nM and 9.09 nM.
`CN(CCC(N)=O)c1cc(N2CCC(C)(C(N)=O)CC2)n2nc(-c3ccccc3Cl)c(-c3ccc(Cl)cc3)c2n1` [Compound 22, 1-[5-[(3-amino-3-oxo-propyl)-methyl-amino]-2-(2-chlorophenyl)-3-(4-chlorophenyl)pyrazolo[1,5-a]pyrimidin-7-yl]-4-methyl-piperidine-4-carboxamide]: the half-maximal inhibitory concentration (IC50) was 9.15 nM on human CB1 receptor [1] and 0.99 nM on human CB1 receptor [2].
As to `CC(C)(O)COc1cc(N2CCC(C)(C(N)=O)CC2)n2nc(-c3ccccc3Cl)c(-c3ccc(Cl)cc3)c2n1` [Compound 13, 1-[2-(2-chlorophenyl)-3-(4-chlorophenyl)-5-(2-hydroxy-2-methyl-propoxy)pyrazolo[1,5-a]pyrimidin-7-yl]-4-methyl-piperidine-4-carboxamide], the IC50 on human CB1 receptor [1] came out at 3.51 nM; at human CB1 receptor [2], 1.26 nM.
For `CC(C)(O)COc1cc(N2CC(C)(C#N)C2)n2nc(-c3ccc(C#N)nc3)c(-c3ccc(Cl)cc3)c2n1` [Compound 51, 5-[3-(4-chlorophenyl)-7-(3-cyano-3-methyl-azetidin-1-yl)-5-(2-hydroxy-2-methyl-propoxy)pyrazolo[1,5-a]pyrimidin-2-yl]pyridine-2-carbonitrile], in that order: 1.73 nM and 0.95 nM.
As for `N#Cc1ccc(-c2nn3c(N4CC(C(N)=O)C4)cc(N4CCC[C@H]4CO)nc3c2-c2ccc(Cl)cc2)cn1` [Compound 61, 1-[3-(4-chlorophenyl)-2-(6-cyano-3-pyridyl)-5-[(2S)-2-(hydroxymethyl)pyrrolidin-1-yl]pyrazolo[1,5-a]pyrimidin-7-yl]azetidine-3-carboxamide], the IC50 at human CB1 receptor [1] was 3.65 nM; on human CB1 receptor [2], 1.39 nM.
The like results for `CC(C)(O)COc1cc(-c2ccc(C(F)(F)F)nc2)n2nc(-c3ccccc3Cl)c(-c3ccc(Cl)cc3)c2n1` [Compound 45, 1-[2-(2-chlorophenyl)-3-(4-chlorophenyl)-7-[6-(trifluoromethyl)-3-pyridyl]pyrazolo[1,5-a]pyrimidin-5-yl]oxy-2-methyl-propan-2-ol] were, in that order, 8.61 nM and 3.97 nM.
The like results for `COc1ccc(-c2cc(N3CCC[C@H]3CO)nc3c(-c4ccc(Cl)cc4)c(-c4ccc(C#N)cc4)nn23)cc1` [Compound 50, 4-[3-(4-chlorophenyl)-5-[(2S)-2-(hydroxymethyl)pyrrolidin-1-yl]-7-(4-methoxyphenyl)pyrazolo[1,5-a]pyrimidin-2-yl]benzonitrile] were, in that order, 4.79 nM and 2.21 nM.
As for `CCOC1(C(N)=O)CCN(c2cc(OCC(C)(C)O)nc3c(-c4ccc(Cl)cc4)c(-c4ccccc4Cl)nn23)CC1` [Compound 42, 1-[2-(2-chlorophenyl)-3-(4-chlorophenyl)-5-(2-hydroxy-2-methyl-propoxy)pyrazolo[1,5-a]pyrimidin-7-yl]-4-ethoxy-piperidine-4-carboxamide], the results for the IC50 at human CB1 receptor [1] and at human CB1 receptor [2] were 4.73 nM and 1.67 nM, respectively.
The like results for `C[C@@H](CO)Oc1cc(-c2ccc(C(F)(F)F)nc2)n2nc(-c3ccccc3Cl)c(-c3ccc(Cl)cc3)c2n1` [Compound 71(S)] were, in that order, 4.07 nM and 1.37 nM.
For `CCNC(=O)CN(C)c1cc(N2CC(CC(N)=O)C2)n2nc(-c3ccccc3Cl)c(-c3ccc(Cl)cc3)c2n1` [Compound 31, 2-[1-[2-(2-chlorophenyl)-3-(4-chlorophenyl)-5-[[2-(ethylamino)-2-oxo-ethyl]-methyl-amino]pyrazolo[1,5-a]pyrimidin-7-yl]azetidin-3-yl]acetamide], the 50% inhibitory concentration (IC50) at human CB1 receptor [1] amounted to 418 nM; at human CB1 receptor [2], 114 nM.
